Source: patent publication US20160106102A1, “KNOWN AND NEW HETEROCYCLIC COMPOUNDS AS PEST CONTROL AGENTS” (BAYER CROPSCIENCE AKTIENGESELLSCHAFT, priority 2013, published 2016)

Test: log P determination by LC-MS in the acidic range
Type: physicochemical
Conditions: LC-MS in the acidic range
Source text: The LC-MS determination in the acidic range is effected at pH 2.7 using 0.1% aqueous formic acid and acetonitrile (contains 0.1% formic acid) as eluents, linear gradient from 10% acetonitrile to 95% acetonitrile. Alternatively, the determination is effected in the acidic range at pH 2.3 using 0.1% aqueous phosphoric acid and acetonitrile as eluents; linear gradient from 10% acetonitrile to 95% acetonitrile.
With `CSc1c(Cl)c(NC(=O)c2cccnc2)nn1C` [Compound I-1-201] the “log P (acid)” value was 1.25.
With `COc1nn(Cn2nc(NC(=O)c3ccnnc3)cc2C)c(=O)n1C1CC1` [Compound I-1-152] the “log P (acid)” value was 1.17.
In the case of `Cc1cnn(Cn2nc(NC(=O)c3ccnnc3)cc2C)c1` [Compound I-1-256], the “log P (acid)” value is reported as 1.1.
In the case of `Cc1cc(NC(=O)c2ccnnc2)nn1CC(F)(F)F` [Compound I-1-250], the “log P (acid)” value is reported as 1.2.
With `Cc1cc(C)nc(-n2nc(NC(=O)c3ccnnc3)cc2C)n1` [Compound I-1-248] the “log P (acid)” value was 1.53.
With `Cc1cc(NC(=O)c2cccnc2)nn1-c1ccc(Cl)c(Cl)c1` [Compound I-1-206] the “log P (acid)” value was 2.59.
In the case of `Cc1cc(F)c(Cn2nc(NC(=O)c3cccnc3)cc2C)cc1SCC(F)(F)F` [Compound I-1-337], the “log P (acid)” value is reported as 2.89.
With `Cc1ccc(C(=O)Nc2cc(C)n(Cc3ccccc3F)n2)cn1` [Compound I-1-102] the “log P (acid)” value was 1.73.
With `CCOC(=O)c1cn(Cc2ccccc2)nc1NC(=O)c1cccnc1` [Compound I-1-272] the “log P (acid)” value was 0.79.
In the case of `Cc1cc(NC(=O)c2cccnc2)nn1C(=O)c1cccc(Cl)c1` [Compound I-1-127], the “log P (acid)” value is reported as 1.92.
In the case of `COc1ccc(-n2ccc(NC(=O)c3cccnc3)n2)cc1` [Compound I-1-271], the “log P (acid)” value is reported as 1.6.
For `Cc1cc(NC(=O)c2cnc(Cl)c(Cl)c2)nn1Cc1ccc(F)cc1` [Compound I-1-97], the “log P (acid)” value was 3.23.
In the case of `O=C(Nc1nn(Cc2ncccn2)cc1Cl)c1cccnc1` [Compound I-1-137], the “log P (acid)” value is reported as 0.58.
In the case of `Cn1nc(NC(=O)c2cccnc2)c(Cl)c1OC(F)F` [Compound I-1-275], the “log P (acid)” value is reported as 1.19.
With `Cc1nn(-c2ccccc2)nc1Cn1nc(NC(=O)c2cccnc2)cc1C` [Compound I-1-303] the “log P (acid)” value was 2.33.
For `Cc1cc(NC(=O)c2ccc(Cl)nc2)nn1Cc1ccccc1` [Compound I-1-98], the “log P (acid)” value was 2.48.
For `Cc1cc(NC(=O)c2ccnnc2)nn1Cn1nc(C)n(C2CC2)c1=O` [Compound I-1-151], the “log P (acid)” value was 0.92.
In the case of `COc1ccc(C(=O)Nc2cc(C)n(Cc3ccccc3F)n2)cn1` [Compound I-1-105], the “log P (acid)” value is reported as 2.52.
With `Cc1cc(NC(=O)c2cnc(Cl)c(Cl)c2)nn1Cc1cccc(F)c1` [Compound I-1-96] the “log P (acid)” value was 3.26.

Same assay, conditions: Table 2, compounds of the formula (I-2); acidic range pH 2.7 or pH 2.3
With `O=C(Nc1ncn(Cc2ccc(Cl)cc2)n1)c1cccnc1` [Compound I-2-13] the “log P (acid)” value was 1.36.
For `COc1nc(NC(=O)c2cccnc2)nn1-c1ccccc1` [Compound I-2-28], the “log P (acid)” value was 1.23.
In the case of `O=C(Nc1ncn(Cc2c(Cl)cccc2Cl)n1)c1cccnc1` [Compound I-2-8], the “log P (acid)” value is reported as 1.39.
In the case of `O=C(Nc1ncn(-c2ncccc2Br)n1)c1cccnc1` [Compound I-2-15], the “log P (acid)” value is reported as 0.67.
For `CCOc1nc(OCC)nc(-n2cnc(NC(=O)c3cccnc3)n2)n1` [Compound I-2-10], the “log P (acid)” value was 1.41.
With `O=C(Nc1nc(Cl)n(-c2ccccc2)n1)c1cccnc1` [Compound I-2-27] the “log P (acid)” value was 1.58.
With `Cc1nc(NC(=O)c2cccnc2)nn1C(C)C` [Compound I-2-20] the “log P (acid)” value was 0.44.

Same assay, conditions: Table 3; HPLC on reversed-phase column (C 18), 55° C., acidic range (pH 2.7 or pH 2.3)
With `O=C(Nc1nn(-c2ccccc2)nc1Br)c1cccnc1` [Compound I-3-3] the “log P (acid)” value was 2.09.
For `Cc1nn(-c2ccccc2)nc1NC(=O)c1cccnc1` [Compound I-3-11], the “log P (acid)” value was 1.82.
For `O=C(Nc1cnn(-c2ncc(Cl)cc2Cl)n1)c1cccnc1` [Compound I-3-15], the “log P (acid)” value was 1.83.
With `O=C(Nc1nn(-c2ccc(Cl)cc2)nc1C(F)(F)F)c1cccnc1` [Compound I-3-20] the “log P (acid)” value was 2.93.
With `Cc1nn(-c2cccc(C(F)(F)F)c2)nc1NC(=O)c1cccnc1` [Compound I-3-18] the “log P (acid)” value was 2.58.
For `O=C(Nc1cnn(-c2ccc(Cl)cc2)n1)c1cccnc1` [Compound I-3-4], the “log P (acid)” value was 2.43.

Same assay, conditions: Table 4; HPLC on reversed-phase column (C 18), 55° C., acidic range (pH 2.7 or pH 2.3)
With `COc1cc(OC)nc(-n2nnc(NC(=O)c3cccnc3)n2)n1` [Compound I-4-4] the “log P (acid)” value was 1.35.
With `CCCCNC(=O)Cn1nnc(NC(=O)c2cccnc2)n1` [Compound I-4-11] the “log P (acid)” value was 0.97.

Same assay, conditions: amines of the formula (II-1); acidic range pH 2.7 (0.1% formic acid/acetonitrile) or pH 2.3 (0.1% phosphoric acid/acetonitrile)
With `Cc1cc(N)nn1Cn1nc(C)n(C2CC2)c1=O` [II-1-49] the “log P (acid)” value was 0.43.
In the case of `Cc1cc(N)nn1Cc1cccnc1` [II-1-28], the “log P (acid)” value is reported as under −0.23.
In the case of `Cc1c(Br)c(N)nn1Cc1ncccn1` [II-1-34], the “log P (acid)” value is reported as 0.92.
With `C#CCn1nc(N)cc1CC` [II-1-17] the “log P (acid)” value was 0.46.
With `Cc1ccnn1Cn1nc(N)cc1C` [II-1-39] the “log P (acid)” value was 0.52.
In the case of `Cc1cc(N)nn1C(C)(C)C#N` [II-1-37], the “log P (acid)” value is reported as 0.64.
In the case of `Cc1cc(N)nn1Cn1ccc(C(F)(F)F)n1` [II-1-42], the “log P (acid)” value is reported as 1.51.
With `Nc1ccn(Cc2ccc(Cl)nc2)n1` [II-1-3] the “log P (acid)” value was 0.56.
With `Cc1cc(C)nc(Cn2nc(N)cc2C)n1` [II-1-9] the “log P (acid)” value was 0.42.
With `Cc1cc(N)nn1Cn1nc(C2CC2)n(C2CC2)c1=O` [II-1-50] the “log P (acid)” value was 0.98.
For `COc1nn(Cn2nc(N)cc2C)c(=O)n1C1CC1` [II-1-47], the “log P (acid)” value was 0.72.
With `Cc1cc(N)nn1Cc1nccs1` [II-1-10] the “log P (acid)” value was 0.19.
With `Cc1cc(N)nn1Cn1c(=O)n(C)c(=O)n1C` [II-1-48] the “log P (acid)” value was 0.03.
For `CCc1cc(N)nn1Cc1ccc(Cl)nc1` [II-1-19], the “log P (acid)” value was 1.11.
For `CC(C)=NOCn1nc(N)cc1C` [II-1-52], the “log P (acid)” value was 0.57.
In the case of `Cc1cc(N)nn1C(F)F` [II-1-27], the “log P (acid)” value is reported as 0.47.
For `Cc1cc(N)nn1C(C)C#N` (stereo not drawn) [II-1-64], the “log P (acid)” value was 0.02.
For `Cc1cc(N)nn1Cc1ncnn1C` [II-1-63], the “log P (acid)” value was under −0.23.
In the case of `Cc1cc(N)nn1CN1CCS/C1=N/C#N` [II-1-44], the “log P (acid)” value is reported as 0.44.
With `Nc1cc(Cl)n(Cc2ncccn2)n1` [II-1-36] the “log P (acid)” value was 0.49.
With `CCOCn1nc(N)cc1C` [II-1-33] the “log P (acid)” value was 0.15.
In the case of `N#Cc1cc(N)nn1Cc1ncccn1` [II-1-62], the “log P (acid)” value is reported as 0.20.
For `Cc1cc(N)nn1Cn1cncn1` [II-1-43], the “log P (acid)” value was −0.23.
In the case of `Cc1cc(N)nn1Cn1nccc1C(F)(F)F` [II-1-41], the “log P (acid)” value is reported as 1.26.

Same assay, conditions: pH 2.7, LC-MS in the acidic range; read-out: log P (acid)
`COC(=O)c1cc(NC(=O)c2cncc(F)c2)nn1C` [Compound I-1-134, Methyl 3-{[(5-fluoropyridin-3-yl)carbonyl]amino}-1-methyl-1H-pyrazole-5-carboxylate] gave a chromatographic logP of 1.5.

Same assay, conditions: pH 2.7, amines of the formula (II-1); acidic range pH 2.7 (0.1% formic acid/acetonitrile) or pH 2.3 (0.1% phosphoric acid/acetonitrile); read-out: log P (acid)
Work on `Nc1cc(Br)n(Cc2ncccn2)n1` [II-1-30, 5-Bromo-1-(pyrimidin-2-ylmethyl)-1H-pyrazole-3-amine] yielded a chromatographic logP of 0.56.
For `CCSCn1nc(N)cc1C` [II-1-61, 1-[(Ethylsulphanyl)methyl]-5-methyl-1H-pyrazole-3-amine], the chromatographic logP was 0.63.

Same assay, conditions: pH 2.7, values given in the synthesis examples and NMR lists; read-out: HPLC-MS: log P
With `Cc1cc(N)nn1C(=O)OC(C)(C)C` [tert-Butyl 3-amino-5-methyl-1H-pyrazole-1-carboxylate] the chromatographic logP was 1.23.
Work on `Cc1cn(Cc2ncccn2)nc1N1C(=O)c2ccccc2C1=O` [2-[4-Methyl-1-(pyrimidin-2-ylmethyl)-1H-pyrazol-3-yl]-1H-isoindole-1,3(2H)-dione] yielded a chromatographic logP of 1.58.
In the case of `COC(=O)c1cc(NC(=O)c2cncc(F)c2)nn1C` [Compound I-1-134, Methyl 3-{[(5-fluoropyridin-3-yl)carbonyl]amino}-1-methyl-1H-pyrazole-5-carboxylate], the chromatographic logP is reported as 1.5.
`Cc1cc([N+](=O)[O-])nn1-c1ncccn1` [2-(5-Methyl-3-nitro-1H-pyrazol-1-yl)pyrimidine] showed a chromatographic logP of 1.41.
Work on `Cc1nn(-c2ccccn2)nc1N` [5-Methyl-2-(pyridin-2-yl)-2H-1,2,3-triazol-4-amine] yielded a chromatographic logP of 0.74.
Work on `Nc1cc(Br)n(Cc2ncccn2)n1` [II-1-30, 5-Bromo-1-(pyrimidin-2-ylmethyl)-1H-pyrazole-3-amine] yielded a chromatographic logP of 0.56.
Compound `CCSCn1nc(N)cc1C` [II-1-61, 1-[(Ethylsulphanyl)methyl]-5-methyl-1H-pyrazole-3-amine] has a chromatographic logP of 0.63.
In the case of `O=C1c2ccccc2C(=O)N1c1cc(Br)n(Cc2ncccn2)n1` [2-[5-Bromo-1-(pyrimidin-2-ylmethyl)-1H-pyrazol-3-yl]-1H-isoindole-1,3(2H)-dione], the chromatographic logP is reported as 2.02.
